We go through 31 molecules from US12336981B2, “Compounds and compositions for the inhibition of NAMPT” (Valo Health, Inc., priority 2010, dated 2025).

One assay deals with T1, NAMPT (Homo sapiens, UniProt P43490).
T1 construct: His tag; host or cells: E. coli
Description: Biochemical inhibition assay: NAMPT enzymatic reaction, NMN quantified by mass spectrometry. The following applies: NAMPT enzymatic assay; read-out: Biochem IC50. In outline: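 Inhibition of E. coli-expressed His-tagged human NAMPT, measured as NMN formation by mass spectrometry after a 30 min room-temperature reaction containing 1 μM NAM, 100 μM PRPP and 2.5 mM ATP.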

In a further assay the test system is A2780 cells. Description: In-vitro cell proliferation assay (SRB), A2780 cells. The class given is cell-based. The following applies: Homo sapiens, A2780, 72 h, A2780 cells, 72 hours, SRB; read-out: A2780 IC50. The procedure, abridged: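 Proliferation is assessed by sulforhodamine B staining following a 72-hour incubation with compound dilutions containing 0.1% DMSO.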

T1 sequence (P43490 whole entry): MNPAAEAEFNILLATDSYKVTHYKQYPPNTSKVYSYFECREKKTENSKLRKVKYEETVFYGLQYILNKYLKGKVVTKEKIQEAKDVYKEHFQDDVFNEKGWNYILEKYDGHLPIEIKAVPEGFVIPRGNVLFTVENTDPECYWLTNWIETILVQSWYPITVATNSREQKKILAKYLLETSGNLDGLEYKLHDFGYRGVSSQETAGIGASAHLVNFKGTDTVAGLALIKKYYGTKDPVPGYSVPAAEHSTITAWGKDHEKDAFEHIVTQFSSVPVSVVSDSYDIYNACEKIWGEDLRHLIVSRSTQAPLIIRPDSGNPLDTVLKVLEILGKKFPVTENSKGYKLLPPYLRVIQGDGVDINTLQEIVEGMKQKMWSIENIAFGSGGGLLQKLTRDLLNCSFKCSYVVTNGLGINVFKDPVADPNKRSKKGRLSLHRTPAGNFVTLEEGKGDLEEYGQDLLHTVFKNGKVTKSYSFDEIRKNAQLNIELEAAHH

Turning to `O=C(NCc1ccc(S(=O)(=O)c2csc(-c3cccc(F)c3)n2)cc1)c1cc2cnccc2[nH]1` [N-({4-[2-(3-fluorophenyl)-1,3-thiazole-4-sulfonyl]phenyl}methyl)-1H-pyrrolo[3,2-c]pyridine-2-carboxamide], the IC50 was determined as 19.2 nM on NAMPT and 23.2 nM in the assay on A2780 cells.

With `O=C(NCc1ccc(S(=O)(=O)c2csc(-c3cccc(F)c3)n2)cc1)c1cc2ccncc2o1` [N-({4-[2-(3-fluorophenyl)-1,3-thiazole-4-sulfonyl]phenyl}methyl)furo[2,3-c]pyridine-2-carboxamide], the values for the IC50 at NAMPT and in the assay on A2780 cells were 11.9 nM and 50.4 nM, respectively.

Consider `O=C(NCc1ccc(S(=O)(=O)c2csc(-c3cccc(F)c3)n2)cc1)c1ccc2nccn2c1` [N-({4-[2-(3-fluorophenyl)-1,3-thiazole-4-sulfonyl]phenyl}methyl)imidazo[1,2-a]pyridine-6-carboxamide], for which the IC50 on NAMPT was determined as 22.9 nM; in the assay with A2780 cells it was 12.8 nM.

Take `O=C(NCc1ccc(S(=O)(=O)c2csc(-c3cccc(F)c3)n2)cc1)c1cnc2nccn2c1` [N-({4-[2-(3-fluorophenyl)-1,3-thiazole-4-sulfonyl]phenyl}methyl)imidazo[1,2-a]pyrimidine-6-carboxamide]: the IC50 stood at 1 nM on NAMPT and 6.9 nM in the assay with A2780 cells.

As for `O=C(NCc1ccc(S(=O)(=O)c2csc(-c3cccc(F)c3)n2)cc1)c1cc2ccncc2s1` [N-({4-[2-(3-fluorophenyl)-1,3-thiazole-4-sulfonyl]phenyl}methyl)thieno[2,3-c]pyridine-2-carboxamide], the IC50 stood at 6.6 nM on NAMPT and 24.4 nM in the assay with A2780 cells.

Regarding `O=C(NCc1ccc(CCS(=O)(=O)c2ccccc2)cc1)c1cc2cnccc2[nH]1` [N-({4-[2-(benzenesulfonyl)ethyl]phenyl}methyl)-1H-pyrrolo[3,2-c]pyridine-2-carboxamide], the IC50 at NAMPT was 23 nM; with A2780 cells it was 166 nM.

Regarding `CN(C)c1ncc(S(=O)(=O)c2ccc(CNC(=O)c3cnc4[nH]ncc4c3)cc2)cn1` [N-({4-[2-(dimethylamino)pyrimidine-5-sulfonyl]phenyl}methyl)-1H-pyrazolo[3,4-b]pyridine-5-carboxamide], the IC50 at NAMPT was determined as 7.9 nM; in the assay on A2780 cells, 5.9 nM.

With `CN(C)c1ncc(S(=O)(=O)c2ccc(CNC(=O)c3cc4cnccc4[nH]3)cc2)cn1` [N-({4-[2-(dimethylamino)pyrimidine-5-sulfonyl]phenyl}methyl)-1H-pyrrolo[3,2-c]pyridine-2-carboxamide], the results for the IC50 on NAMPT and in the assay with A2780 cells were 19 nM and 3.5 nM, respectively.

In the case of `CN(C)c1ncc(S(=O)(=O)c2ccc(CNC(=O)c3cc4ccncc4o3)cc2)cn1` [N-({4-[2-(dimethylamino)pyrimidine-5-sulfonyl]phenyl}methyl)furo[2,3-c]pyridine-2-carboxamide], the IC50 is 25.8 nM at NAMPT and 12 nM with A2780 cells.

For the molecule `CN(C)c1ncc(S(=O)(=O)c2ccc(CNC(=O)c3cc4ccncc4s3)cc2)cn1` [N-({4-[2-(dimethylamino)pyrimidine-5-sulfonyl]phenyl}methyl)thieno[2,3-c]pyridine-2-carboxamide], the results for the IC50 at NAMPT and in the assay with A2780 cells were 8 nM and 1.7 nM, respectively.

As for `O=C(NCc1ccc(S(=O)(=O)c2cccnc2N2CCOCC2)cc1)c1cc2ccncc2o1` [N-({4-[2-(morpholin-4-yl)pyridine-3-sulfonyl]phenyl}methyl)furo[2,3-c]pyridine-2-carboxamide], the IC50 worked out at 32.5 nM on NAMPT and 60.5 nM with A2780 cells.

With `O=C(NCc1ccc(S(=O)(=O)c2cccnc2N2CCOCC2)cc1)c1cnc2nccn2c1` [N-({4-[2-(morpholin-4-yl)pyridine-3-sulfonyl]phenyl}methyl)imidazo[1,2-a]pyrimidine-6-carboxamide], the IC50 on NAMPT is 31.2 nM; with A2780 cells it was 100 to 1000 nM.

Turning to `O=C(NCc1ccc(S(=O)(=O)c2cnc(N3CCCC3)s2)cc1)c1cnc2[nH]ncc2c1` [N-({4-[2-(pyrrolidin-1-yl)-1,3-thiazole-5-sulfonyl]phenyl}methyl)-1H-pyrazolo[3,4-b]pyridine-5-carboxamide], the half-maximal inhibitory concentration (IC50) at NAMPT was 2.8 nM; in the assay with A2780 cells, 0.9 nM.

On to `O=C(NCc1ccc(S(=O)(=O)c2cnc(N3CCCC3)s2)cc1)c1cc2cnccc2[nH]1` [N-({4-[2-(pyrrolidin-1-yl)-1,3-thiazole-5-sulfonyl]phenyl}methyl)-1H-pyrrolo[3,2-c]pyridine-2-carboxamide], for which the IC50 at NAMPT is 6 nM; in the assay with A2780 cells, 0.5 nM.

For the molecule `O=C(NCc1ccc(S(=O)(=O)c2cnc(N3CCCC3)s2)cc1)c1ccc2nccn2c1` [N-({4-[2-(pyrrolidin-1-yl)-1,3-thiazole-5-sulfonyl]phenyl}methyl)imidazo[1,2-a]pyridine-6-carboxamide], the IC50 is 2.4 nM on NAMPT and 0.4 nM in the assay with A2780 cells.

For `O=C(NCc1ccc(S(=O)(=O)c2cnc(N3CCCC3)s2)cc1)c1cnc2nccn2c1` [N-({4-[2-(pyrrolidin-1-yl)-1,3-thiazole-5-sulfonyl]phenyl}methyl)imidazo[1,2-a]pyrimidine-6-carboxamide], the IC50 at NAMPT was 2.9 nM; with A2780 cells it was 0.9 nM.

As to `O=C(NCc1ccc(S(=O)(=O)c2cnc(N3CCCC3)s2)cc1)c1cc2ccncc2s1` [N-({4-[2-(pyrrolidin-1-yl)-1,3-thiazole-5-sulfonyl]phenyl}methyl)thieno[2,3-c]pyridine-2-carboxamide], the figures for the 50% inhibitory concentration (IC50) at NAMPT and in the assay on A2780 cells were 1.5 nM and 0.7 nM, respectively.

As to `O=C(NCc1ccc(S(=O)(=O)c2ccc3nc(C(F)(F)F)cn3c2)cc1)c1cnc2[nH]ncc2c1` [N-({4-[2-(trifluoromethyl)imidazo[1,2-a]pyridine-6-sulfonyl]phenyl}methyl)-1H-pyrazolo[3,4-b]pyridine-5-carboxamide], the IC50 on NAMPT worked out at 49.7 nM; with A2780 cells, 33 nM.

In the case of `O=C(NCc1ccc(S(=O)(=O)c2ccc3nc(C(F)(F)F)cn3c2)cc1)c1cc2ccncc2o1` [N-({4-[2-(trifluoromethyl)imidazo[1,2-a]pyridine-6-sulfonyl]phenyl}methyl)furo[2,3-c]pyridine-2-carboxamide], the IC50 on NAMPT came to 21.2 nM; in the assay on A2780 cells, 11.9 nM.

With `O=C(NCc1ccc(S(=O)(=O)c2ccc3nc(C(F)(F)F)cn3c2)cc1)c1ccc2nccn2c1` [N-({4-[2-(trifluoromethyl)imidazo[1,2-a]pyridine-6-sulfonyl]phenyl}methyl)imidazo[1,2-a]pyridine-6-carboxamide], the figures for the IC50 at NAMPT and in the assay with A2780 cells were 36.2 nM and 7 nM, respectively.

In the case of `O=C(NCc1ccc(S(=O)(=O)c2ccc3nc(C(F)(F)F)cn3c2)cc1)c1cc2ccncc2s1` [N-({4-[2-(trifluoromethyl)imidazo[1,2-a]pyridine-6-sulfonyl]phenyl}methyl)thieno[2,3-c]pyridine-2-carboxamide], the values for the IC50 at NAMPT and with A2780 cells were 3.1 nM and 3.9 nM, respectively.

On to `O=C(NCc1ccc(S(=O)(=O)c2cccnc2C(F)(F)F)cc1)c1cc2ccncc2o1` [N-({4-[2-(trifluoromethyl)pyridine-3-sulfonyl]phenyl}methyl)furo[2,3-c]pyridine-2-carboxamide], for which the results for the IC50 at NAMPT and in the assay with A2780 cells were 30.4 nM and 27.9 nM, respectively.

For the molecule `O=C(NCc1ccc(S(=O)(=O)c2ccnc(N3CCOCC3)c2Cl)cc1)c1cc2ccncc2s1` [N-({4-[3-chloro-2-(morpholin-4-yl)pyridine-4-sulfonyl]phenyl}methyl)thieno[2,3-c]pyridine-2-carboxamide], the IC50 came to 8.5 nM at NAMPT and 1.8 nM with A2780 cells.

`O=C(NCc1ccc(S(=O)(=O)c2cc(C(F)(F)F)ccn2)cc1)c1cnc2[nH]ncc2c1` [N-({4-[4-(trifluoromethyl)pyridine-2-sulfonyl]phenyl}methyl)-1H-pyrazolo[3,4-b]pyridine-5-carboxamide]: the values for the IC50 at NAMPT and in the assay with A2780 cells were 28.3 nM and 11.8 nM, respectively.

Consider `O=C(NCc1ccc(S(=O)(=O)c2cc(C(F)(F)F)ccn2)cc1)c1cc2ccncc2o1` [N-({4-[4-(trifluoromethyl)pyridine-2-sulfonyl]phenyl}methyl)furo[2,3-c]pyridine-2-carboxamide], for which the figures for the IC50 at NAMPT and in the assay on A2780 cells were 13.9 nM and 6.1 nM, respectively.

In the case of `O=C(NCc1ccc(S(=O)(=O)c2cc(C(F)(F)F)ccn2)cc1)c1cnc2nccn2c1` [N-({4-[4-(trifluoromethyl)pyridine-2-sulfonyl]phenyl}methyl)imidazo[1,2-a]pyrimidine-6-carboxamide], the values for the IC50 on NAMPT and in the assay with A2780 cells were 8.7 nM and 13 nM, respectively.

For `O=C(NCc1ccc(S(=O)(=O)c2cc(C(F)(F)F)ccn2)cc1)c1cc2ccncc2s1` [N-({4-[4-(trifluoromethyl)pyridine-2-sulfonyl]phenyl}methyl)thieno[2,3-c]pyridine-2-carboxamide], the IC50 on NAMPT amounted to 3.6 nM; with A2780 cells, 3 nM.

`CN(C)c1cnc(S(=O)(=O)c2ccc(CNC(=O)c3ccc4nccn4c3)cc2)cn1` [N-({4-[5-(dimethylamino)pyrazine-2-sulfonyl]phenyl}methyl)imidazo[1,2-a]pyridine-6-carboxamide]: the figures for the IC50 on NAMPT and in the assay on A2780 cells were 16 nM and 3.6 nM, respectively.

For `O=C(NCc1ccc(S(=O)(=O)c2cncc(N3CCCC3)c2)cc1)c1ccc2ncsc2c1` [N-({4-[5-(pyrrolidin-1-yl)pyridine-3-sulfonyl]phenyl}methyl)-1,3-benzothiazole-6-carboxamide], the IC50 was 9.2 nM on NAMPT and 100 to 1000 nM in the assay with A2780 cells.

Turning to `O=C(NCc1ccc(S(=O)(=O)c2cncc(N3CCCC3)c2)cc1)c1cnc2[nH]ncc2c1` [N-({4-[5-(pyrrolidin-1-yl)pyridine-3-sulfonyl]phenyl}methyl)-1H-pyrazolo[3,4-b]pyridine-5-carboxamide], the IC50 at NAMPT was found to be 17.9 nM; in the assay with A2780 cells it was 4 nM.

Consider `O=C(NCc1ccc(S(=O)(=O)c2cncc(N3CCCC3)c2)cc1)c1cc2cnccc2[nH]1` [N-({4-[5-(pyrrolidin-1-yl)pyridine-3-sulfonyl]phenyl}methyl)-1H-pyrrolo[3,2-c]pyridine-2-carboxamide], for which the figures for the IC50 on NAMPT and in the assay on A2780 cells were 13.9 nM and 2 nM, respectively.
